Laboratory results taken from patent publication US9855292B2, “Cyanocobalamin, methylcobalamin, and/or adenosylcobalamin to help maintain a pain-free head and pain-free body and provide defense against headaches and body pain” (priority 2013, dated 2018).
Like-named read-outs stand apart in the source and are kept apart here. Each block holds one compound with its values, some of them ahead of it.

Legend:
[1] = Example 2 Phase 3 study: safety; format: in vivo, human; conditions: 3.3 mg a.m. and p.m., six weeks
From the text: This clinical study was designed and directed by the inventor of the current patent. A large, multi-center, Phase 3, randomized, placebo-controlled clinical study on 1,551 patients was designed and directed by the inventor of the current patent. Methods: The study was titled: “A Phase 3, randomized, double-blind, placebo-controlled, parallel group study of the safety and efficacy of pre-seasonal sublingual cyanocobalamin lozenges on moderate to moderately severe seasonal allergic rhinitis in humans”. The study took place before and during the ragweed pollen season at 23 study sites in the Midwest, Northeast and Central Texas regions of the United States. Essentially all of the 23 investigators were Board Certified in Allergy/Immunology. Qualified subjects were randomized into an active or placebo group (approximately 50% and 50%) using an interactive voice recognition system (IVRS). […] The blood samples were analyzed by chemiluminescent immunoassay for the presence of ragweed specific immunoglobulin epsilon (IgE), and were assayed for cobalamins (cyanocobalamin, methylcobalamin and adenosylcobalamin) levels.
Any adverse event (AE) or serious adverse event (SAE) was documented by the subject in a paper diary and then transcribed to the appropriate case report form (CRF) page. […] All sites were monitored multiple times by qualified monitors.

[2] = system: human subjects with demonstrated seasonal allergic rhinitis (hay fever); experiment: Example 1 clinical study: reports of Headache after 21 days of study medication; format: in vivo; conditions: for post-treatment reports of Headache, decrease from baseline: active group
Protocol: This clinical study was designed and directed by the inventor of the current patent. […] Subjects were given their study medication, either Cyanocobalamin, USP or placebo in the a.m. and p.m. every day for 21 consecutive days. Data on adverse events including headache was captured throughout the ten-week duration of the study. Week One was a baseline during which time no medication was administered; Weeks Two, Three and Four were the weeks during which time the subjects received their study medication; and Weeks Five through Ten were a post-treatment period during which time no medication was administered but observations of symptoms and adverse events were documented. Each time a subject felt a “Headache”, he or she reported its occurrence.

[3] = Example 2 Phase 3 study: blood serum cobalamin levels; format: in vivo, human; conditions: cyanocobalamin, methylcobalamin and adenosylcobalamin; 3.3 mg a.m. and p.m., six weeks
From the text: (§1) This clinical study was designed and directed by the inventor of the current patent. A large, multi-center, Phase 3, randomized, placebo-controlled clinical study on 1,551 patients was designed and directed by the inventor of the current patent. Methods: The study was titled: “A Phase 3, randomized, double-blind, placebo-controlled, parallel group study of the safety and efficacy of pre-seasonal sublingual cyanocobalamin lozenges on moderate to moderately severe seasonal allergic rhinitis in humans”. The study took place before and during the ragweed pollen season at 23 study sites in the Midwest, Northeast and Central Texas regions of the United States. Essentially all of the 23 investigators were Board Certified in Allergy/Immunology. Qualified subjects were randomized into an active or placebo group (approximately 50% and 50%) using an interactive voice recognition system (IVRS). All subjects (or their guardians) signed an Informed Consent form approved by the IRB. Each subject had three visits to the clinic. […] The blood samples were analyzed by chemiluminescent immunoassay for the presence of ragweed specific immunoglobulin epsilon (IgE), and were assayed for cobalamins (cyanocobalamin, methylcobalamin and adenosylcobalamin) levels. […]

[4] = system: moderate to moderately severe seasonal allergic rhinitis in humans; experiment: Example 2 Phase 3 study: allergy symptom scores; format: in vivo, human; conditions: Weeks 4, 5 and 6; ITT; sneezing, runny nose, nasal congestion, nasal itch and eye itch
From the text: as §1

[5] = system: headache and body pain in humans; experiment: Example 2 Phase 3 study: documented reports of headache and body pain; format: in vivo, human; conditions: active group
From the text: This clinical study was designed and directed by the inventor of the current patent. A large, multi-center, Phase 3, randomized, placebo-controlled clinical study on 1,551 patients was designed and directed by the inventor of the current patent. Methods: The study was titled: “A Phase 3, randomized, double-blind, placebo-controlled, parallel group study of the safety and efficacy of pre-seasonal sublingual cyanocobalamin lozenges on moderate to moderately severe seasonal allergic rhinitis in humans”. The study took place before and during the ragweed pollen season at 23 study sites in the Midwest, Northeast and Central Texas regions of the United States. Essentially all of the 23 investigators were Board Certified in Allergy/Immunology. Qualified subjects were randomized into an active or placebo group (approximately 50% and 50%) using an interactive voice recognition system (IVRS). All subjects (or their guardians) signed an Informed Consent form approved by the IRB. Each subject had three visits to the clinic. At Visit 1 and at Visit 3, they were given a physical exam (HEENT, chest, lungs, heart, vital signs, height and weight); and donated blood and urine samples for laboratory analysis. CBC and chemistry panels were run for safety analyses. The blood samples were analyzed by chemiluminescent immunoassay for the presence of ragweed specific immunoglobulin epsilon (IgE), and were assayed for cobalamins (cyanocobalamin, methylcobalamin and adenosylcobalamin) levels.
Subjects were given their study medication, either 3.3 mg Cyanocobalamin, USP or placebo in the a.m. and p.m. Subjects were instructed to let the study drug “dissolve completely in your mouth, especially under your tongue, then swallow.”. Subjects self-administered the study medications for six consecutive weeks.
Any adverse event (AE) or serious adverse event (SAE) was documented by the subject in a paper diary and then transcribed to the appropriate case report form (CRF) page. All SAEs were attended to by the investigator, and reported to the FDA by the sponsor. All sites were monitored multiple times by qualified monitors.
The following types of headaches were self-diagnosed and documented by subjects in the study: tension headache, headache, migraine, increased frequency of headaches, worsening sinus migraine headache, increased headache, headache worsening, worsening of migraine, sinus headache, severe sinus headache, and sinus pressure headache.
The following types of body pains and myasthenia were self-diagnosed and documented by subjects in the study: ear pain, earache, sore throat, sore muscles, leg cramps, myalgia, back pain, sprained ankle, ache, toothache, hip pain, finger pain, knee pain, pulled back muscle, shoulder pain, pulled hamstring, neck pain, femur pain, gum pain, sore muscle, toenail pain, sore foot, and pulled neck muscle.

migraine patients [6] = conditions: 2 mg intramuscularly every two weeks for two months, cited from earlier work
migraine patients [7] = conditions: cited from earlier work; for mean migraine severity: 0-3 scale, all subjects

average increase in post-treatment blood serum cobalamin levels [3]: more than 250%
Compound: 5,6-dimethylbenzimidazolyl cyanocobamide [cyanocobalamin]
safety / tolerability [1]: well tolerated | post-treatment reports of Headache, decrease from baseline ([2]; Week Eight): −2.1 | post-treatment reports of Headache, decrease from baseline ([2]; Week Five): −1.4 | post-treatment reports of Headache, decrease from baseline ([2]; Week Nine): −3.4 | post-treatment reports of Headache, decrease from baseline ([2]; Week Seven): −1.4 | post-treatment reports of Headache, decrease from baseline ([2]; Week Six): −1.6 | post-treatment reports of Headache, decrease from baseline ([2]; Week Ten): −3.2 | persistence of effect per follow-up questionnaire ([2]; almost one year later, 43 active and 49 placebo subjects): persistence of effect lasting almost one year | persistence of effect after finishing the treatment ([2]; post-treatment Weeks Five through Ten): at least six weeks | greater reduction in the frequency of headache in the active group versus placebo ([2]; six post-treatment weeks): five out of six post-treatment weeks | reduction in allergy symptom severity from baseline versus placebo [4]: greater for the active group than the placebo group | headache and body pain reports rated Mild [5]: 63 reports | headache and body pain reports rated Mild, share [5]: 46.0% | headache and body pain reports rated Moderate [5]: 68 reports | headache and body pain reports rated Moderate, share [5]: 49.6% | headache and body pain reports rated Severe [5]: 6 reports | headache and body pain reports rated Severe, share [5]: 4.4% | documented reports of some type of headache and of body pain ([5]; of 294 reports in total): 137 reports | authors' conclusion on therapeutic effect (migraine patients [6]): no therapeutic effect attributable to cyanocobalamin was demonstrated | patients reporting Considerable improvement (migraine patients [6]; active n=15): 2 | patients reporting Good result (migraine patients [6]; active n=15): 4

Compound: C/C1=C2/[N-][C@H]([C@H](CC(N)=O)[C@@]2(C)CCC(=O)NC[C@@H](C)OP(=O)([O-])O[C@H]2[C@@H](O)[C@@H](n3cnc4cc(C)c(C)cc43)O[C@@H]2CO)[C@]2(C)N=C(/C(C)=C3N=C(/C=C4N=C1[C@@H](CCC(N)=O)C\4(C)C)[C@@H](CCC(N)=O)[C@]\3(C)CC(N)=O)[C@@H](CCC(N)=O)[C@]2(C)CC(N)=O.[Co+3].[OH-] [hydroxocobalamin]
mean migraine severity (migraine patients [7]; at baseline): 2.2 | mean migraine severity (migraine patients [7]; at the end of the study): 2.1 | effect on migraine (migraine patients [7]; intranasal, unblinded, open-label, 19 migraine patients): can have an effect on migraine
